Experimental data reported in paper PMC2573961 (PLoS ONE, 2008).
One block for each sequence: values may come before it. No end group written: not given here.

Columns and labels:
human recombinant ERAP1 = target: T1, human recombinant ERAP1 (Homo sapiens, UniProt Q9NZ08); test: N-terminus trimming of model peptides by ERAP1, products analysed by reverse-phase HPLC; format: biochemical; settings: alanine scan, 40 ng of ERAP1, three separate experiments in parallel; RP-HPLC; Figure 3A
T1 construct: we over-expressed human recombinant full-length ERAP1 in insect cell suspension culture; hexa-His (C); myc; made in house; host or cells: Hi5 insect cells (baculovirus; virus made in SF9 cells)
Procedure: Human recombinant ERAP1 was produced in Hi5 insect cells grown in Excel405™ serum free medium, after infection by baculovirus carrying the ERAP1 gene with a C-terminal hexa-His tag. The enzyme was secreted into the cell medium, which was harvested by centrifugation (3000 rpm, 30 min, 4°C, GSA rotor) in a Sorvall centrifuge. The cell supernatant was subjected to 3 rounds of buffer exchange (10 fold dilution each time) using a large scale diafiltration apparatus versus 5 mM phosphate buffer at pH 7 containing 100 mM NaCl. The supernatant was then concentrated and its composition adjusted to 50 mM phosphate (pH 8), 300 mM NaCl, 10 mM imidazole and immediately loaded onto a HiTrap™ chelating column (Qiagen) that was pre-loaded with Ni(II)SO4. The column was washed with the same buffer containing 20 mM imidazole and the protein was eluted using a 20 mM to 150 mM imidazole gradient. […]
The digestion of model peptides by ERAP1 was followed by analysis of peptide products of the digestion on a reverse phase C18 column (Higgins Analytical 0546-C183). […] The elution was done with a 5% to 40% acetonitrile gradient at 1 ml/min, while following the absorbance at 214 nm or 280 nm. […]
Figure 1 Typical chromatogram of peptide product analysis after ERAP1 digestion. Samples were analyzed by HPLC reverse phase chromatography. […]

ERAP1 [1] = test: 40 ng of ERAP1 in 20 mM Tris pH 8 buffer containing 100 mM NaCl; settings: human, 37°C, up to 1 hr
ERAP1 [2] = test: purified recombinant ERAP1 (alanine scan); settings: human
ERAP1 [3] = test: 15.6 nM of ERAP1; settings: human, 37°C, up to 1 hr
ERAP1 [4] = test: ERAP1, trimming rate measurements (pmol/µg ERAP1×sec); settings: human
ERAP1 [5] = test: 800 nM ERAP1; settings: human, 37°C, up to 1 hr
[6] = test system: ERAP1 (recombinant, Hi5 insect cells); test: purified recombinant ERAP1 in 20 mM Tris pH 8, 100 mM NaCl; settings: human, 37°C, up to 1 hr
ERAP1 [7] = test: 40 ng ERAP1; settings: human, 37°C, up to 1 hr
ERAP1 [8] = test: 7.8 nM of ERAP1; settings: human, 37°C, up to 1 hr
ERAP1 [9] = test: 1 nM ERAP1; settings: human, 37°C, up to 1 hr

T1 sequence (Q9NZ08 1-948 isoform Q9NZ08-2): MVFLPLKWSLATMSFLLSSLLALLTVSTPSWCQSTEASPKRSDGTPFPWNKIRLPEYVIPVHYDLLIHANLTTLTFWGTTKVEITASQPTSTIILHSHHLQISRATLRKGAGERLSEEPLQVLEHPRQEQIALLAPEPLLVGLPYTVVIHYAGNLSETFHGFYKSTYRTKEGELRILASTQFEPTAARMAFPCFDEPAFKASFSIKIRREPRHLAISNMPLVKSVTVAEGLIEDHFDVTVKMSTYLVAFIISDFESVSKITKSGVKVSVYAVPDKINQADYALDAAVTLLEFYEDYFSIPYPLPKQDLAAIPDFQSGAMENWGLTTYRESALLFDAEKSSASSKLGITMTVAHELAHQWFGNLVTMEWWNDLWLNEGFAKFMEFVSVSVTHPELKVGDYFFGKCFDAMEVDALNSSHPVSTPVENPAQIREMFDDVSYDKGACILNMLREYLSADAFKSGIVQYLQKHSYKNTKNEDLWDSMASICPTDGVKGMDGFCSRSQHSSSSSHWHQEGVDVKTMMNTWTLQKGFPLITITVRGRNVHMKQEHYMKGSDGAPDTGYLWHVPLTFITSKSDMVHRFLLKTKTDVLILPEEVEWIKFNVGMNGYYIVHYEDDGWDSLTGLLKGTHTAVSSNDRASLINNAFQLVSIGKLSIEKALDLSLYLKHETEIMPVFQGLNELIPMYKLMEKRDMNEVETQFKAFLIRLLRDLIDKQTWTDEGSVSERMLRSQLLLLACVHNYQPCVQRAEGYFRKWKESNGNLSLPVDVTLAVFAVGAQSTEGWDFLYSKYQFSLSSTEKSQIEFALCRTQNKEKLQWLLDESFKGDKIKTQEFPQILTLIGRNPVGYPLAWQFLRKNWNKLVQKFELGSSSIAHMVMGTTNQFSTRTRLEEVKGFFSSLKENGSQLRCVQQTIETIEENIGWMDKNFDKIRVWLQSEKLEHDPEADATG

Sequence: LYWANATASG [LYWANATASG]
- percent N-terminus trimming detected (human recombinant ERAP1): Less than 1%

Sequence: LYWANATRSG
- cleaved bond (ERAP1 [1]): L-Y
- cleaved bond (ERAP1 [2]): L-Y

Sequence: LTAEEAVET
- cleaved bond (ERAP1 [4]): L-T
- not cleaved (ERAP1 [5]): completely resistant to trimming after 1 hr with 800 nM ERAP1

Sequence: FYWANATRSG
- cleaved bond [6]: F-Y, 1 hr
- cleaved bond (ERAP1 [1]): F-Y, 1 hr

Sequence: LAAALSIINFEKL
- not cleaved (ERAP1 [1]): resistant to any trimming after 1 hr
- not cleaved (ERAP1 [7]): resistant to any trimming after 1 hr

Sequence: LSIINFEKL
- cleaved bond (ERAP1 [1]): L-S, 1 hr
- cleaved bond (ERAP1 [8]): L-S

Sequence: LYWANAARSG
- cleaved bond (ERAP1 [1]): L-Y

Sequence: LYWANATRAG
- cleaved bond (ERAP1 [1]): L-Y

Other lines, results leading:

- cleaved bond (ERAP1 [1]): L-A
Sequence: LAWANATRSG

- cleaved bond (ERAP1 [1]): L-S, 1 hr
Sequence: LSIINFEKLAAAL

- cleaved bond (ERAP1 [3]): L-V, 1 hr
Sequence: LVNVDYSKL

- cleaved bond (ERAP1 [3]): L-V, 1 hr
Sequence: LVNVDYSAL

- cleaved bond (ERAP1 [1]): L-Y
Sequence: LYAANATRSG

- cleaved bond (ERAP1 [1]): A-Y
Sequence: AYWANATRSG

- cleaved bond (ERAP1 [8]): L-S, 1 hr
Sequence: LSIINFEAL

- cleaved bond (ERAP1 [1]): L-Y
Sequence: LYWAAATRSG

- cleaved bond (ERAP1 [1]): M-Y
Sequence: MYWANATRSG

- cleaved bond (ERAP1 [1]): L-Y
Sequence: LYWANATRSA

- cleaved bond (ERAP1 [4]): L-Y
- not cleaved (ERAP1 [2]): Less than 1% trimming
Sequence: LYWANATASG

- cleaved bond (ERAP1 [9]): L-V, 1 hr
Sequence: LVAFKARKF
